Consider twelve compounds from PubChem BioAssay AID250 (DTP/NCI, 2004).

The test system of this experiment is BDF1 mice, L1210 leukemia sc, survival T/C. The experiment is described as follows: NCI In Vivo Anticancer Drug Screen. Data for tumor model L1210 Leukemia (subcutaneous) in B6D2F1 (BDF1) mice. Conditions: higher = longer survival. An outline of the steps: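 Read-out: T/C ratio, i.e. survival or tumor size in treated mice over that in vehicle-treated controls, from mice bearing transplantable tumors.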

The mark [1] stands for this setting: endpoint: median survival time, dose: 108.0 mg/kg/injection, schedule: Q01DX Z (sc), vehicle: saline.
[2] abbreviates: endpoint: median survival time, dose: 180.0 mg/kg/injection, schedule: Q01DX Z (sc), vehicle: saline.
Setting [3] is: endpoint: median survival time, dose: 300.0 mg/kg/injection, schedule: Q01DX Z (sc), vehicle: saline.
Setting [4] is: endpoint: median survival time, dose: 500.0 mg/kg/injection, schedule: Q01DX Z (sc), vehicle: saline.
[5] abbreviates: endpoint: median survival time, dose: 23.0 mg/kg/injection, schedule: Q01DX Z (sc), vehicle: water.
The mark [6] stands for this setting: endpoint: median survival time, dose: 14.0 mg/kg/injection, schedule: Q01DX Z (sc), vehicle: methylcellulose (MC).
Setting [7] is: endpoint: median survival time, dose: 23.0 mg/kg/injection, schedule: Q01DX Z (sc), vehicle: methylcellulose (MC).
[8] abbreviates: endpoint: median survival time, dose: 39.0 mg/kg/injection, schedule: Q01DX Z (sc), vehicle: methylcellulose (MC).
Setting [9] is: endpoint: median survival time, dose: 65.0 mg/kg/injection, schedule: Q01DX Z (sc), vehicle: methylcellulose (MC).
Setting [10] is: endpoint: median survival time, dose: 108.0 mg/kg/injection, schedule: Q01DX Z (sc), vehicle: methylcellulose (MC).
[11] abbreviates: endpoint: median survival time, dose: 180.0 mg/kg/injection, schedule: Q01DX Z (sc), vehicle: methylcellulose (MC).
The mark [12] stands for this setting: endpoint: median survival time, dose: 300.0 mg/kg/injection, schedule: Q01DX Z (sc), vehicle: methylcellulose (MC).

“And” between values parts separate entries of the source, which are not always exact repeats. Equal entries are not always repeated. Inconclusive results and toxic doses are left out.

For `O=c1[nH]cc(Br)c(=O)[nH]1`, the T/C is, setting by setting: (endpoint: median survival time, dose: 38.9 mg/kg/injection, schedule: Q01DX Z (sc), vehicle: saline) 91 % of control; (endpoint: median survival time, dose: 64.8 mg/kg/injection, schedule: Q01DX Z (sc), vehicle: saline) 95 % of control; under setting [1], 100 % of control; under setting [2], 100 % of control; under setting [3], 100 % of control; under setting [4], 100 % of control.

As to `CN(Cc1cnc2nc(N)nc(N)c2n1)c1c(Cl)cc(C(=O)NC(CCC(=O)O)C(=O)O)cc1Cl` (configuration not stated), the T/C (endpoint: median survival time, dose: 14.0 mg/kg/injection, schedule: Q01DX Z (sc), vehicle: sodium bicarbonate) is 245 % of control; the T/C (endpoint: median survival time, dose: 23.0 mg/kg/injection, schedule: Q01DX Z (sc), vehicle: sodium bicarbonate) was 259 % of control; the T/C (endpoint: median survival time, dose: 39.0 mg/kg/injection, schedule: Q01DX Z (sc), vehicle: sodium bicarbonate) is 427 % of control; the T/C (endpoint: median survival time, dose: 100.0 mg/kg/injection, schedule: Q01DX Z (sc), vehicle: other) was 154 % of control.

For `Cc1c(CNc2ccc(C(=O)NC(CC(=O)O)C(=O)O)cc2)ccc2nc(N)nc(N)c12` (configuration not stated), the T/C (endpoint: median survival time, dose: 0.05 mg/kg/injection, schedule: Q01DX017 (sc), vehicle: sodium bicarbonate) was 116 % of control; the T/C (endpoint: median survival time, dose: 1.8 mg/kg/injection, schedule: Q04DX005 (sc), vehicle: sodium bicarbonate) was 229 % of control; the T/C (endpoint: median survival time, dose: 3.0 mg/kg/injection, schedule: Q04DX005 (sc), vehicle: sodium bicarbonate) is 233 % of control; the T/C (endpoint: median survival time, dose: 5.0 mg/kg/injection, schedule: Q04DX005 (sc), vehicle: sodium bicarbonate) was 170 % of control; the T/C (endpoint: median survival time, dose: 8.4 mg/kg/injection, schedule: Q04DX005 (sc), vehicle: sodium bicarbonate) was 150 % of control; the T/C (endpoint: median survival time, dose: 14.0 mg/kg/injection, schedule: Q01DX017 (sc), vehicle: sodium bicarbonate) was 95 % of control. In addition, the T/C is 116 % of control (endpoint: median survival time, dose: 14.0 mg/kg/injection, schedule: Q04DX005 (sc), vehicle: sodium bicarbonate) and 87 % of control (endpoint: median survival time, dose: 23.0 mg/kg/injection, schedule: Q01DX017 (sc), vehicle: sodium bicarbonate).

For `CCSc1nc(Cl)cc(Sc2nc(N)nc3nc[nH]c23)n1`, the T/C was 100 % of control (endpoint: median survival time, dose: 97.5 mg/kg/injection, schedule: Q01DX Z (sc), vehicle: methylcellulose (MC)); 100 % of control (endpoint: median survival time, dose: 156.0 mg/kg/injection, schedule: Q01DX Z (sc), vehicle: methylcellulose (MC)); 100 % of control (endpoint: median survival time, dose: 250.0 mg/kg/injection, schedule: Q01DX Z (sc), vehicle: methylcellulose (MC)); 100 % of control (endpoint: median survival time, dose: 400.0 mg/kg/injection, schedule: Q01DX Z (sc), vehicle: methylcellulose (MC)); 95 % of control (endpoint: median survival time, dose: 640.0 mg/kg/injection, schedule: Q01DX Z (sc), vehicle: methylcellulose (MC)).

As to `CCN(CC)CCCC(C)Nc1c2ccc(Cl)cc2nc2ccc(OC)cc12` (configuration not stated), the T/C is, setting by setting: under setting [5], 90 % of control; (endpoint: median survival time, dose: 39.0 mg/kg/injection, schedule: Q01DX Z (sc), vehicle: water) 100 % of control; (endpoint: median survival time, dose: 65.0 mg/kg/injection, schedule: Q01DX Z (sc), vehicle: water) 100 % of control; (endpoint: median survival time, dose: 108.0 mg/kg/injection, schedule: Q01DX Z (sc), vehicle: water) 95 % of control; (endpoint: median survival time, dose: 180.0 mg/kg/injection, schedule: Q01DX Z (sc), vehicle: water) 100 % of control; (endpoint: median survival time, dose: 300.0 mg/kg/injection, schedule: Q01DX Z (sc), vehicle: water) 100 % of control.

`CC(C)CSc1nc(N)nc2nc[nH]c12`: the T/C under setting [6] was 100 % of control; the T/C under setting [7] was 105 % of control; the T/C under setting [8] is 111 % of control; the T/C under setting [9] was 111 % of control; the T/C under setting [10] is 111 % of control; the T/C under setting [11] is 116 % of control. The T/C under setting [12] was 111 % of control.

As for `CN(C)CCN(Cc1ccccc1)c1ccccn1`, the T/C runs as follows: (endpoint: median survival time, dose: 16.0 mg/kg/injection, schedule: Q01DX001 (sc), vehicle: saline) 95 % of control and 100 % of control; (endpoint: median survival time, dose: 20.0 mg/kg/injection, schedule: Q01DX001 (sc), vehicle: saline) 97 % of control and 100 % of control; (endpoint: median survival time, dose: 24.0 mg/kg/injection, schedule: Q01DX001 (sc), vehicle: saline) 96 % of control and 100 % of control; (endpoint: median survival time, dose: 30.0 mg/kg/injection, schedule: Q01DX001 (sc), vehicle: saline) 98 % of control and 100 % of control.

As for `C[C@H](N)C(=O)N[C@@H]1[C@H]2C(=C(O)C[C@@H](O)[C@@H]2O)C(=O)O[C@@H]1C`, the T/C by setting is: (endpoint: median survival time, dose: 39.0 mg/kg/injection, schedule: Q01DX Z (sc), vehicle: saline) 109 % of control; (endpoint: median survival time, dose: 65.0 mg/kg/injection, schedule: Q01DX Z (sc), vehicle: saline) 109 % of control; under setting [1], 100 % of control; under setting [2], 100 % of control and 104 % of control; (endpoint: median survival time, dose: 180.0 mg/kg/injection, schedule: Q#A X Z (sc), vehicle: saline) 103 % of control; under setting [3], 100 % of control and 109 % of control. For the same compound, the T/C (endpoint: median survival time, dose: 300.0 mg/kg/injection, schedule: Q#A X Z (sc), vehicle: saline) was 107 % of control; the T/C (endpoint: median survival time, dose: 389.0 mg/kg/injection, schedule: Q01DX Z (sc), vehicle: saline) is 112 % of control; the T/C under setting [4] is 107 % of control and 118 % of control; the T/C (endpoint: median survival time, dose: 500.0 mg/kg/injection, schedule: Q#A X Z (sc), vehicle: saline) is 103 % of control; the T/C (endpoint: median survival time, dose: 833.0 mg/kg/injection, schedule: Q01DX Z (sc), vehicle: saline) was 163 % of control; the T/C (endpoint: median survival time, dose: 1388.0 mg/kg/injection, schedule: Q#A X Z (sc), vehicle: saline) is 115 % of control. Moreover, the T/C (endpoint: median survival time, dose: 1800.0 mg/kg/injection, schedule: Q01DX Z (sc), vehicle: saline) was 150 % of control.

As for `O=C(NP(=O)(N1CC1)N1CC1)OCc1ccccc1`, the T/C (endpoint: median survival time, dose: 3.0 mg/kg/injection, schedule: Q01DX Z (sc), vehicle: water) is 111 % of control; the T/C (endpoint: median survival time, dose: 14.0 mg/kg/injection, schedule: Q01DX Z (sc), vehicle: water) is 111 % of control; the T/C under setting [5] is 111 % of control.

Take `Nc1ccn(C2CC(O)C(CO)O2)c(=O)n1` (configuration not stated): the T/C by setting is: (endpoint: median survival time, dose: 37.5 mg/kg/injection, schedule: Q06HX018 (sc), vehicle: water) 108 % of control; (endpoint: median survival time, dose: 37.5 mg/kg/injection, schedule: Q## X018 (sc), vehicle: water) 111 % of control; (endpoint: median survival time, dose: 75.0 mg/kg/injection, schedule: Q03HX008 (sc), vehicle: water) 90 % of control and 93 % of control; (endpoint: median survival time, dose: 75.0 mg/kg/injection, schedule: Q06HX018 (sc), vehicle: water) 102 % of control; (endpoint: median survival time, dose: 75.0 mg/kg/injection, schedule: Q## X018 (sc), vehicle: water) 100 % of control; (endpoint: median survival time, dose: 150.0 mg/kg/injection, schedule: Q03HX008 (sc), vehicle: water) 100 % of control and 102 % of control. Moreover, the T/C reads like this: (endpoint: median survival time, dose: 150.0 mg/kg/injection, schedule: Q06HX018 (sc), vehicle: water) 98 % of control; (endpoint: median survival time, dose: 150.0 mg/kg/injection, schedule: Q## X018 (sc), vehicle: water) 100 % of control; (endpoint: median survival time, dose: 300.0 mg/kg/injection, schedule: Q06HX018 (sc), vehicle: water) 106 % of control; (endpoint: median survival time, dose: 300.0 mg/kg/injection, schedule: Q## X018 (sc), vehicle: water) 105 % of control.

As for `CS(=O)(=O)Nc1ccc(Nc2c3ccccc3nc3cc(Cl)ccc23)cc1`, the T/C (endpoint: mean survival time, dose: 10.0 mg/kg/injection, schedule: Q01DX009 (sc), vehicle: saline) is 104 % of control; the T/C (endpoint: mean survival time, dose: 20.0 mg/kg/injection, schedule: Q01DX009 (sc), vehicle: saline) was 112 % of control; the T/C (endpoint: mean survival time, dose: 40.0 mg/kg/injection, schedule: Q01DX009 (sc), vehicle: saline) is 113 % of control; the T/C (endpoint: mean survival time, dose: 80.0 mg/kg/injection, schedule: Q01DX009 (sc), vehicle: saline) is 124 % of control.

As to `C=CCCCCCCCCC(C)(N)C(=O)O` (configuration not stated), the T/C reads like this: under setting [6], 100 % of control; under setting [7], 90 % of control; under setting [8], 90 % of control; under setting [9], 95 % of control; under setting [10], 95 % of control; under setting [11], 100 % of control. Moreover, the T/C under setting [12] is 95 % of control.
